Several values for one entry are separate records, joined by “and”; a condition that tells them apart may be missing. Identical values can stand only once.
System: patients with PoPH
Assay: PORTICO safety: treatment-emergent AEs, SAEs, AESIs, deaths, discontinuations
Type: in vivo
Excerpt: For the evaluation of treatment-emergent safety endpoints in the DB phase, the observation period for each individual subject started at the time of the first administration of macitentan or placebo and ended with the start of OL treatment or 30 days after DB treatment discontinuation (whichever occurred first). The safety variables listed below apply to the DB treatment-emergent period and the macitentan treatment-emergent period. The DB treatment-emergent period was defined as the period from the DB treatment start date up to the EOT-DB+30 days or to the EOT-DB for patients entering OL. The macitentan treatment-emergent period was defined as the period from the first intake of macitentan up to end of macitentan treatment (EOMT)+30 days. EOMT was defined as EOT-DB (for patient who received macitentan only in the DB period) or EOT-OL when applicable. For patients entering OLE, the EOMT is EOT-OL. • Treatment-emergent AEs • Treatment-emergent deaths • Treatment-emergent serious adverse events (SAEs) • AEs leading to premature discontinuation of study treatment • Occurrence of post-baseline LFT (ALT and/or AST) abnormalities, classified as: • ≥3×ULN; • ≥5×ULN; • ≥8×ULN; • ≥3×ULN and <5×ULN; • […] and <8×ULN. • Occurrence of post-baseline ALT and/or AST abnormality 3×ULN and concomitant (i.e., at the same time) total bilirubin ≥2×ULN • Occurrence of post-baseline ALT and/or AST abnormality ≥3×ULN and concomitant (i.e., at the same time) total bilirubin ≥2×ULN and increased as compared to baseline • Occurrence of hemoglobin abnormalities, classified as: • ≤80 g/L, • >80 and ≤100 g/L, • decrease from baseline ≥20 g/L and <50 g/L, • decrease from baseline ≥50 g/L, • <100 g/L and concurrent (i.e., at the same time) decrease from baseline ≥20 g/L. • Other treatment-emergent marked laboratory abnormalities • Change from baseline/macitentan baseline to EOT-DB/EOMT in vital signs • Change from baseline/macitentan baseline to EOT-DB/EOMT in laboratory variables • Change from baseline/macitentan baseline to EOT-DB/EOMT in Child-Pugh classification • Change from baseline/macitentan baseline to EOT-DB/EOMT in MELD score
(i) Adverse events: All AEs occurring after study start (i.e., signing of informed consent) and up to 30 days after study treatment discontinuation were required to be recorded. AEs still ongoing more than 30 days after study treatment discontinuation were required to be followed up until they were no longer considered clinically relevant.
(ii) Serious adverse events, including associated with study design or protocol-mandated procedures: During the screening period, all SAEs occurring after study start (i.e., signing of informed consent) were required to be recorded (whether considered associated or not associated to study design or study-mandated procedures). All SAEs, regardless of investigator-attributed causal relationship, occurring during the treatment period up to the end of the 30-day follow up period, were required to be reported. SAEs still ongoing at the EOS visit were required to be followed up until resolution or stabilization, or until the event outcome was provided, e.g., death. New SAEs occurring after the 30-day follow-up period were required to be reported within 24 hours.
In addition, the following adverse events of special interest (AESIs) were analyzed: • “Edema and fluid retention”
Any treatment-emergent AE with PT listed in the Standardised MedDRA Query (SMQ) “Haemodynamic oedema, effusions and fluid overload (SMQ)” or with PT equal to “Pulmonary congestion” defined in the latest available MedDRA version, with the exception of PTs containing “site”. • “Anemia”

[1] = macitentan DB + OL phase, Macitentan treated set, N = 84
[2] = macitentan DB+OL phase, MTS N=84

## CCCNS(=O)(=O)Nc1ncnc(OCCOc2ncc(Br)cn2)c1-c1ccc(Br)cc1 [macitentan, N-[5-(4-Bromophenyl)-6-[2-[(5-bromo-2-pyrimidinyl)oxy]ethoxy]-4-pyrimidinyl]-N′-propylsulfamide]
[1]
  AEs of special interest Hepatic disorders, Blood bilirubin increased: 1 (1.2) n (%)
  AEs of special interest Hepatic disorders, Hepatocellular carcinoma: 1 (1.2) n (%)
  AEs of special interest Hepatic disorders, Jaundice: 1 (1.2) n (%)
  AEs of special interest Hepatic disorders, Liver function test abnormal: 1 (1.2) n (%)
  AEs of special interest Hepatic disorders, Liver function test increased: 1 (1.2) n (%)
  AEs of special interest Hepatic disorders, Portal hypertensive gastropathy: 1 (1.2) n (%)
  AEs of special interest Hepatic disorders, Portopulmonary hypertension: 1 (1.2) n (%)
  AEs of special interest Hepatic disorders, Subjects with atleast one AE: 13 (15.5) n (%)
  AEs of special interest Hepatic disorders, Total bile acids increased: 2 (2.4) n (%)
  AEs of special interest Hepatic disorders, Varices oesophageal: 1 (1.2) n (%)
  Subjects with at least one AE: 74 (88.1) n (%)
  Subjects with at least one SAE: 25 (29.8) n(%)
  Treatment-emergent AE, Abdominal pain: 4 (4.8) n (%)
  Treatment-emergent AE, Acute kidney injury: 3 (3.6) n (%)
  Treatment-emergent AE, Anaemia: 12 (14.3) n (%)
  Treatment-emergent AE, Arthralgia: 3 (3.6) n (%)
  Treatment-emergent AE, Ascites: 4 (4.8) n (%)
  Treatment-emergent AE, Asthenia: 4 (4.8) n (%)
  Treatment-emergent AE, Bronchitis: 8 (9.5) n (%)
  Treatment-emergent AE, Dizziness: 7 (8.3) n (%)
  Treatment-emergent AE, Dyspnoea: 4 (4.8) n (%)
  Treatment-emergent AE, Dyspnoea exertional: 3 (3.6) n (%)
  Treatment-emergent AE, Fall: 3 (3.6) n (%)
  Treatment-emergent AE, Haemoglobin decreased: 6 (7.1) n (%)
  Treatment-emergent AE, Headache: 16 (19.0) n (%)
  Treatment-emergent AE, Hepatic encephalopathy: 4 (4.8) n (%)
  Treatment-emergent AE, Hypokalaemia: 3 (3.6) n (%)
  Treatment-emergent AE, Hypotension: 4 (4.8) n (%)
  Treatment-emergent AE, Influenza like illness: 3 (3.6) n (%)
  Treatment-emergent AE, Iron deficiency anaemia: 3 (3.6) n (%)
  Treatment-emergent AE, Muscle spasms: 3 (3.6) n (%)
  Treatment-emergent AE, Nausea: 4 (4.8) n (%)
  Treatment-emergent AE, Oedema peripheral: 23 (27.4) n (%)
  Treatment-emergent AE, Pain in extremity: 7 (8.3) n (%)
  Treatment-emergent AE, Pruritus: 3 (3.6) n (%)
  Treatment-emergent AE, Pulmonary arterial hypertension: 3 (3.6) n (%)
  Treatment-emergent AE, Rash: 3 (3.6) n (%)
  Treatment-emergent AE, Rhinitis: 5 (6.0) n (%)
  Treatment-emergent AE, Right ventricular failure: 6 (7.1) n (%)
  Treatment-emergent AE, Urinary tract infection: 3 (3.6) n (%)
  Treatment-emergent AE, Viral upper respiratory tract infection: 4 (4.8) n (%)
  Treatment-emergent AE, Vomiting: 3 (3.6) n (%)
  Treatment-emergent SAE, Abdominal pain: 1 (1.2) n(%)
  Treatment-emergent SAE, Acute kidney injury: 2 (2.4) n(%)
  Treatment-emergent SAE, Alveolitis: 1 (1.2) n(%)
  Treatment-emergent SAE, Anaemia: 2 (2.4) n(%)
  Treatment-emergent SAE, Ascites: 2 (2.4) n(%)
  Treatment-emergent SAE, Asthma: 1 (1.2) n(%)
  Treatment-emergent SAE, Atrial fibrillation: 1 (1.2) n(%)
  Treatment-emergent SAE, Bronchitis: 1 (1.2) n(%)
  Treatment-emergent SAE, Chronic kidney disease: 1 (1.2) n(%)
  Treatment-emergent SAE, Fall: 1 (1.2) n(%)
  Treatment-emergent SAE, Fluid overload: 1 (1.2) n(%)
  Treatment-emergent SAE, Gastrointestinal haemorrhage: 1 (1.2) n(%)
  Treatment-emergent SAE, Haemoptysis: 1 (1.2) n(%)
  Treatment-emergent SAE, Hepatic encephalopathy: 3 (3.6) n(%)
  Treatment-emergent SAE, Hepatocellular carcinoma: 1 (1.2) n(%)
  Treatment-emergent SAE, Humerus fracture: 1 (1.2) n(%)
  Treatment-emergent SAE, Hypersensitivity: 1 (1.2) n(%)
  Treatment-emergent SAE, Ileus: 1 (1.2) n(%)
  Treatment-emergent SAE, Intervertebral disc protrusion: 1 (1.2) n(%)
  Treatment-emergent SAE, Iron deficiency anaemia: 1 (1.2) n(%)
  Treatment-emergent SAE, Left ventricular failure: 1 (1.2) n(%)
  Treatment-emergent SAE, Liver function test increased: 1 (1.2) n(%)
  Treatment-emergent SAE, Localised oedema: 1 (1.2) n(%)
  Treatment-emergent SAE, Lung infection: 1 (1.2) n(%)
  Treatment-emergent SAE, Malignant ascites: 1 (1.2) n(%)
  Treatment-emergent SAE, Melaena: 2 (2.4) n(%)
  Treatment-emergent SAE, Oedema peripheral: 2 (2.4) n(%)
  Treatment-emergent SAE, Osteitis: 1 (1.2) n(%)
  Treatment-emergent SAE, Pneumonia: 1 (1.2) n(%)
  Treatment-emergent SAE, Presyncope: 1 (1.2) n(%)
  Treatment-emergent SAE, Priapism: 1 (1.2) n(%)
  Treatment-emergent SAE, Pulmonary arterial hypertension: 2 (2.4) n(%)
  Treatment-emergent SAE, Pulmonary toxicity: 1 (1.2) n(%)
  Treatment-emergent SAE, Right ventricular failure: 4 (4.8) n(%)
  Treatment-emergent SAE, Staphylococcal infection: 1 (1.2) n(%)
  Treatment-emergent SAE, Subdural haematoma: 1 (1.2) n(%)
  Treatment-emergent SAE, Syncope: 1 (1.2) n(%)
  Treatment-emergent SAE, Thrombocytopenia: 1 (1.2) n(%)
  Treatment-emergent SAE, Tinnitus: 1 (1.2) n(%)
  Treatment-emergent SAE, Troponin I increased: 1 (1.2) n(%)
  Treatment-emergent SAE, Urosepsis: 1 (1.2) n(%)
Macitentan DB+OL phase
  Anemia AEs reported as SAEs: 2 and 3
  Patients who discontinued treatment due to AEs: 10 patients
  Patients who had an SAE: 29.8%
  Patients with edema and fluid retention AEs reported as serious: 2 patients
  Patients with hepatic disorder AEs reported as SAEs: 5 patients
  Peripheral edema leading to discontinuation of treatment: 2 patients
Macitentan DB+OL phase (13 patients)
  Patients with hepatic disorder AEs: 15.5%
Macitentan DB+OL phase (22 patients)
  Patients with anemia AEs: 26.2%
Macitentan DB+OL phase (26 patients)
  Patients with edema and fluid retention AEs: 31.0%
Macitentan DB+OL phase, 3 patients
  Decreased hemoglobin considered related to study treatment: 3.6%
Macitentan DB+OL phase, 3 patients each
  Most frequent severe AEs (peripheral edema, right ventricular failure, acute kidney injury), each: 3.6%
Macitentan DB+OL phase, 4 patients
  Anemia considered related to study treatment: 4.8%
Macitentan DB+OL phase, 10 patients
  Peripheral edema considered related to study treatment: 11.9%
Macitentan DB+OL phase, 11 patients
  Headache considered related to study treatment: 13.1%
Macitentan DB+OL phase, 19 patients
  Patients with AEs of severe intensity: 22.6%
[2]
  Subjects with AE leading to study drug discontinuation: 10 (11.9) n (%)
  Subjects with Drug-Related AE: 33 (39.3) n (%)
  Subjects with Drug-Related serious AE: 8 (9.5) n (%)
  Subjects with Fatal serious AE: 4 (4.8) n (%)
  Subjects with Serious AE: 25 (29.8) n (%)
  Subjects with Severe AE: 19 (22.6) n (%)
Macitentan DB+OL phase, Macitentan treated set N=84
  Subjects with at least one AE: 74 (88.1) n (%)
Patients with PoPH and mild or moderate liver impairment
  Overall safety and tolerability: good safety profile and is well tolerated

— patent US20220257595A1, “MACITENTAN FOR USE IN TREATING PORTOPULMONARY HYPERTENSION” (ACTELION PHARMACEUTICALS LTD, priority 2019, published 2022)
